Test system: NCI-H211 complex spheroid viability
Test: Anticancer human tumor NCI-H211 cell line growth inhibition [LSD1];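 also: luminescent viability read after seven days of drug exposure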;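 as to viability, T/C: 100% = DMSO vehicle control viability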
Details: for IC50: curve of first compound; for viability, T/C: stronger effect = lower value; active = viability on the fitted dose curve at most 10% of control; inactive = the rest
Method in brief: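 Multicellular complex spheroids of tumor cells with human endothelial cells (HUVEC) and mesenchymal stem cells; the LSD1 inhibitor iadademstat was combined with standard-of-care or investigational agents. Top concentration at or near clinical Cmax, half-log dilutions; final DMSO ≤0.25%.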

[1] = second compound 0.1 µM, first compound 0.000316 µM
[2] = second compound 0.1 µM, first compound 0.001 µM
[3] = second compound 0.1 µM, first compound 0.00316 µM
[4] = second compound 0.1 µM, first compound 0.01 µM
[5] = second compound 0.1 µM, first compound 0.0316 µM
[6] = second compound 0.1 µM, first compound 0.1 µM
[7] = second compound 0.316 µM, first compound 0.000316 µM
[8] = second compound 0.316 µM, first compound 0.001 µM
[9] = second compound 0.316 µM, first compound 0.00316 µM
[10] = second compound 0.316 µM, first compound 0.01 µM
[11] = second compound 0.316 µM, first compound 0.0316 µM
[12] = second compound 0.316 µM, first compound 0.1 µM
[13] = second compound 1 µM, first compound 0.000316 µM
[14] = second compound 1 µM, first compound 0.001 µM
[15] = second compound 1 µM, first compound 0.00316 µM
[16] = second compound 1 µM, first compound 0.01 µM
[17] = second compound 1 µM, first compound 0.0316 µM
[18] = second compound 1 µM, first compound 0.1 µM
[19] = second compound 3.16 µM, first compound 0.000316 µM
[20] = second compound 3.16 µM, first compound 0.001 µM
[21] = second compound 3.16 µM, first compound 0.00316 µM
[22] = second compound 3.16 µM, first compound 0.01 µM
[23] = second compound 3.16 µM, first compound 0.0316 µM
[24] = second compound 3.16 µM, first compound 0.1 µM
[25] = second compound 10 µM, first compound 0.000316 µM
[26] = second compound 10 µM, first compound 0.001 µM
[27] = second compound 10 µM, first compound 0.00316 µM
[28] = second compound 10 µM, first compound 0.01 µM
[29] = second compound 10 µM, first compound 0.0316 µM
[30] = second compound 10 µM, first compound 0.1 µM

CC(C)CC(NC(=O)C(Cc1ccccc1)NC(=O)c1cnccn1)B(O)O (stereo not given) + NC1CC1c1ccc(-c2cccc(O)c2)cc1
inactive: viability, T/C [1] 112% | viability, T/C [2] 108% | viability, T/C [3] 54.1% | viability, T/C [7] 107% | viability, T/C [8] 119% | viability, T/C [9] 51.4% | viability, T/C [13] 83.4% | viability, T/C [14] 104% | viability, T/C [15] 47.8% | viability, T/C [19] 81.2% | viability, T/C [20] 102% | viability, T/C [21] 54.2% | viability, T/C [25] 70.8% | viability, T/C [26] 74.1% | viability, T/C [27] 27.7%
3.26 nM: IC50 (second compound 0.316 µM)
2.99 nM: IC50 (second compound 1 µM)
3.45 nM: IC50 (second compound 0.1 µM)
1.78 nM: IC50 (second compound 10 µM)
active: viability, T/C [4] 1.17% | viability, T/C [5] 0.06% | viability, T/C [6] 0.19% | viability, T/C [10] 1.97% | viability, T/C [11] 0.17% | viability, T/C [12] 0.17% | viability, T/C [16] 0.86% | viability, T/C [17] 0.09% | viability, T/C [18] 0.18% | viability, T/C [22] 1.3% | viability, T/C [23] 0.09% | viability, T/C [24] 0.19% | viability, T/C [28] 0.47% | viability, T/C [29] 0.18% | viability, T/C [30] 0.27%
3.46 nM: IC50 (second compound 3.16 µM)

CC(C)CC(NC(=O)CNC(=O)c1cc(Cl)ccc1Cl)B1OC(=O)CC(CC(=O)O)(C(=O)O)O1 (stereo not given) + NC1CC1c1ccc(-c2cccc(O)c2)cc1
inactive: viability, T/C [1] 90.8% | viability, T/C [2] 76.5% | viability, T/C [3] 82.2% | viability, T/C [4] 61.9% | viability, T/C [5] 29.3% | viability, T/C [7] 91.6% | viability, T/C [8] 102% | viability, T/C [9] 97.5% | viability, T/C [10] 61.6% | viability, T/C [11] 30% | viability, T/C [13] 74.5% | viability, T/C [14] 83.2% | viability, T/C [15] 96.7% | viability, T/C [16] 57.4% | viability, T/C [17] 27.8% | viability, T/C [19] 75.3% | viability, T/C [20] 82.8% | viability, T/C [21] 93.4% | viability, T/C [22] 56.5% | viability, T/C [23] 24.5% | viability, T/C [25] 71% | viability, T/C [26] 70.3% | viability, T/C [27] 98.3% | viability, T/C [28] 38.5%
16 nM: IC50 (second compound 0.316 µM)
14.9 nM: IC50 (second compound 1 µM)
13.9 nM: IC50 (second compound 3.16 µM)
active: viability, T/C [6] 5.5% | viability, T/C [12] 5.69% | viability, T/C [18] 4.52% | viability, T/C [24] 4.84% | viability, T/C [29] 17.4% | viability, T/C [30] 2.36%
15.4 nM: IC50 (second compound 0.1 µM)
7.26 nM: IC50 (second compound 10 µM)

COc1cc(Nc2ncc3c(n2)-c2ccc(Cl)cc2C(c2c(F)cccc2OC)=NC3)ccc1C(=O)O + NC1CC1c1ccc(-c2cccc(O)c2)cc1
active: viability, T/C [4] 5.72% | viability, T/C [5] 4.04% | viability, T/C [6] 3.29% | viability, T/C (second compound 0.1 µM, first compound 0.316 µM) 4.66% | viability, T/C (second compound 0.1 µM, first compound 1 µM) 3.94% | viability, T/C [10] 6.96% | viability, T/C [11] 3.41% | viability, T/C [12] 4.23% | viability, T/C (second compound 0.316 µM, first compound 0.316 µM) 4.53% | viability, T/C (second compound 0.316 µM, first compound 1 µM) 3.46% | viability, T/C [16] 6.82% | viability, T/C [17] 3.89% | viability, T/C [18] 4.49% | viability, T/C (second compound 1 µM, first compound 0.316 µM) 3.81% | viability, T/C (second compound 1 µM, first compound 1 µM) 3.95% | viability, T/C [22] 7.56% | viability, T/C [23] 4.05% | viability, T/C [24] 3.76% | viability, T/C (second compound 3.16 µM, first compound 0.316 µM) 3.87% | viability, T/C (second compound 3.16 µM, first compound 1 µM) 3.54% | viability, T/C [28] 6.88% | viability, T/C [29] 4.59% | viability, T/C [30] 4.93% | viability, T/C (second compound 10 µM, first compound 0.316 µM) 5.57% | viability, T/C (second compound 10 µM, first compound 1 µM) 4.21%
< 3.16 nM: IC50 (second compound 0.1 µM) | IC50 (second compound 0.316 µM) | IC50 (second compound 1 µM) | IC50 (second compound 3.16 µM) | IC50 (second compound 10 µM)
inactive: viability, T/C [3] 28.2% | viability, T/C [9] 37.7% | viability, T/C [15] 33.4% | viability, T/C [21] 21.8% | viability, T/C [27] 21.8%
